Like-named read-outs stand apart in the source and are kept apart here.
Legend:
αβγ hENaC [1] = biological target: T1, αβγ hENaC (Homo sapiens, UniProt P37088+P51168+P51170); set-up: method as in PMID 18326490; conditions: read-out: EC50 of S3969 obtained by patch-clamp; cited from earlier work
T1 construct: GFP; host or cells: HEK293T
T1 sequence (P37088 1-669): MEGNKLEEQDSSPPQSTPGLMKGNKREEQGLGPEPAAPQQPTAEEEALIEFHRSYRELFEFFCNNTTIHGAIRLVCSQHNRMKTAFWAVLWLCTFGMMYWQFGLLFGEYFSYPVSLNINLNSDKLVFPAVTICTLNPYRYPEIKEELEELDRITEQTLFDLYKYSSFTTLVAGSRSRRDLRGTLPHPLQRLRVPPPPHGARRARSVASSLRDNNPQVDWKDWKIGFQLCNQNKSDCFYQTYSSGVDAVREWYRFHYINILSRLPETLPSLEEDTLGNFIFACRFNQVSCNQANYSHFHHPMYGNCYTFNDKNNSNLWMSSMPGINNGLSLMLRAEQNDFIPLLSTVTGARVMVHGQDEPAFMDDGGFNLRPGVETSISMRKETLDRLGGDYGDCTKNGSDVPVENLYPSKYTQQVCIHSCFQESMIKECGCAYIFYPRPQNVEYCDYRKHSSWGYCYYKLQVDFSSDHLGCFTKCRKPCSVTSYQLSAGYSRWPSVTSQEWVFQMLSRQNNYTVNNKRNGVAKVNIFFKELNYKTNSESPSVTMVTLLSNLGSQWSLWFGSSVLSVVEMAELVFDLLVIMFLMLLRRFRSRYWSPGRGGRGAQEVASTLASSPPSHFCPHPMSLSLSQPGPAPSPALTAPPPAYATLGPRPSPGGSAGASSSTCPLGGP
T1 sequence (P51168 1-640): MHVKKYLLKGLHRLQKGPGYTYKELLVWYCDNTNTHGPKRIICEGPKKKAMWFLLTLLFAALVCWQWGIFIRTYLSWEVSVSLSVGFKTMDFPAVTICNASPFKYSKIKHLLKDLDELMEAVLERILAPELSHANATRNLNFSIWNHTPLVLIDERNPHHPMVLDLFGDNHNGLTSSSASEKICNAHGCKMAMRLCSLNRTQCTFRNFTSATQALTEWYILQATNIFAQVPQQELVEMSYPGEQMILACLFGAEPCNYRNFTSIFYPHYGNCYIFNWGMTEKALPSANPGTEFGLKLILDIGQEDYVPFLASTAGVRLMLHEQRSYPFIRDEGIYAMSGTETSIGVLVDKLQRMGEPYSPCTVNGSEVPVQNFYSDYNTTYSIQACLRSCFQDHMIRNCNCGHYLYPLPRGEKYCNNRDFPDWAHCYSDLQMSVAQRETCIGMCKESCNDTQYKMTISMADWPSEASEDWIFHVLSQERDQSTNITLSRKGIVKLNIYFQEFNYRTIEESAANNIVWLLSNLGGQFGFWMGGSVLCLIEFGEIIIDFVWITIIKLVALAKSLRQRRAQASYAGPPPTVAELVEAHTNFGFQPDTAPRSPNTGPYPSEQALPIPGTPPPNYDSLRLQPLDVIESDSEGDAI
T1 sequence (P51170 1-649): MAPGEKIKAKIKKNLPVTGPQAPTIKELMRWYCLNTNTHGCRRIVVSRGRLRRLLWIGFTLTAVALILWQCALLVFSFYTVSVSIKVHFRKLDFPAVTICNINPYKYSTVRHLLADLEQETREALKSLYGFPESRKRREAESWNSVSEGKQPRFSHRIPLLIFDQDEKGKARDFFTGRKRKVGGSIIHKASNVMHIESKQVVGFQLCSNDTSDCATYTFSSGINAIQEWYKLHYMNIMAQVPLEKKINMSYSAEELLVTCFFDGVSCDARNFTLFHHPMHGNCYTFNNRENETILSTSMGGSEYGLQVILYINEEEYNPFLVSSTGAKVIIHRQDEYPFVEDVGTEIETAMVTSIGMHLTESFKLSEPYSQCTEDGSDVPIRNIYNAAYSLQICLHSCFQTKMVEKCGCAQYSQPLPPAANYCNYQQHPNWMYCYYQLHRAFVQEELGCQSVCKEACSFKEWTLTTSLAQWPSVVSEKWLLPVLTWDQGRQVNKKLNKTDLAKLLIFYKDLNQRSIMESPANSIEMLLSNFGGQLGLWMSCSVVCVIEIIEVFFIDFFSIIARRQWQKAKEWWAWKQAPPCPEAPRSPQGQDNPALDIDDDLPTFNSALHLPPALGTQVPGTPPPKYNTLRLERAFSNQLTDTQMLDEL

αβγ hENaC [2] = biological target: T1, αβγ hENaC; experiment: Membrane potential assay (FMP dye) on αβγ hENaC-expressing cells; format: cell-based; conditions: 0.03-10 µM; read-out: EC50, depolarization of membrane potential in hENaC expressing cells
Description: The α, β, and γ hENaC subunits were cloned from OriGene (Rockville, MD; GenBank accession number […] for SCNN1A, NM_000336 for SCNN1B and NM_001039 for SCNN1G). α, GFP-tagged β, and γ hENaC were cloned into a CMV promoter-based vector and expressed constitutively. The HEK293T cells were seeded onto a 35 mm dish and transfected with α, β, and γ hENaC expression plasmid using Lipofectamine 2000 (Invitrogen). Then, transfected cells were seeded onto 96-well black-wall plate for 18–26 h prior to their use in an experiment.
hENaC-expressing cells were characterized using FLIPER Membrane Potential (FMP) Assay Kit (Molecular Devices Corporation, Sunnyvale, CA, USA). In this assay, changes in the membrane potential were quantified via fluorescence change caused by FMP dye. The hENaC-expressing cells were washed with assay buffer (containing: 130 mM NaCl, 10 mM glucose, 5 mM KCl, 2 mM CaCl2, 1.2 mM MgCl2, and 10 mM HEPES, pH adjusted to 7.4 with NaOH) and subsequently, FMP blue-dye in assay buffer was loaded into the cells at room temperature for 30 min. After dye treatment, S3969 (0.03−10 µM), an ENaC agonist, S3969+Bz (ENaC antagonist, 0.01 µM), or NGCC (0.01−10 µM) was treated to hENaC-expressing cells. The plate was assayed in a FlexStation III plate reader (Molecular devices Corporation) by excitation at 530 nm and measuring the emission at 560 nm.

[3] = system: lingual surface potential to salt stimuli; set-up: method as in PMID 12736236, PMID 16809639; conditions: amiloride 100 µM, humans, gustometer; cited from earlier work
human αβγ ENaC = system: human αβγ ENaC; set-up: method as in PMID 18326490; conditions: cited from earlier work
[4] = system: chorda tympani (CT) taste nerve response to NaCl; set-up: method as in PMID 12736236, PMID 16809639; conditions: cited from earlier work
human δβγ ENaC = system: human δβγ ENaC; set-up: method as in PMID 18326490; conditions: cited from earlier work

Row | Compound | EC50 (αβγ hENaC [1]) [µM] | EC50 (αβγ hENaC [2]) [µM] | reduction of lingual surface potential to salt stimuli [3] | IC50 (human αβγ ENaC) [µM] | inhibition of chorda tympani (CT) taste nerve response to NaCl [4] | IC50 (human δβγ ENaC) [µM]
1 | Cc1cccc2[nH]cc(SC(CC(C)C)C(=O)NCCO)c12 (stereo not drawn) [S3969] | 1.2 ± 0.1 | 1.26 ± 0.29 |  |  |  | 
2 | N=C(N)NC(=O)c1nc(Cl)c(N)nc1N [amiloride] |  |  | 5–40% | ~0.11 | about 70% | ~2.7
